Where a SMILES comes first, the peptide text is derived from it. The star is where a group is joined. Palmitoyl = CCCCCCCCCCCCCCCC(=O)*
What was measured:
[1] = Example 5 Supplemental: turbidity meter (Nephla) of compositions with active agents over time (Table 12a); type: physicochemical; settings: SMA 3000P (hydrolysed) 2.5%, lipid 90H 1%; as to clarity: key: Clear: categorised as being clear if there was no significant visible opacity to the naked eye; Cloudy: categorised as cloudy if there was significant visible disruption to the passage of light
Protocol: The turbidity meter was calibrated prior to use, with two known standards (0 and 40 FNU).
After the final stage of sample preparation (i.e. adjustment of the pH to physiological) samples were course filtered through Whatman 541 filter paper to remove any gross matter which could interfere with turbidity measurement. Immediately after filtration the first turbidity measurement was taken. Mixtures were stored at 4° C. following the initial measurement, and remeasured at later time points.

[2] = Example 5: compositions of the invention to solubilise exemplary active agents (visual clarity, pH on clearing, clarity at pH 7); settings: SMA 3000HNa 2.5%, 90H 1%, S LPC 0.01%
Protocol: A stock emulsion of cosurfactant, membrane forming lipid and active was prepared at double the desired final concentration. Cosurfactant was dissolved in water while heating (approximately 50° C.) and stirring. Lipid was then added, followed by continued stirring and heating until a uniform emulsion is formed. The emulsion was then homogenised for 10 minutes. After re-heating to approximately 50° C. the active component was added slowly under stirring until a uniform emulsion was present. The final emulsion was then homogenised for a further 10 minutes.
Stock solutions were prepared by mixing of the hydrolysed polymer with the appropriate volume of water.
Polymer/lipid mixtures were then prepared by the dropwise addition of the lipid containing emulsion to an equal volume of polymer solution while stirring and heating to approximately 50° C.
The pH of the mixtures was adjusted to determine the critical pH level at which macromolecular assemblies formed, and whether the resulting clear and colourless solution would remain at physiological pH.
Percentage values specified in this experiment refer to the weight of the component in question as a proportion of the total weight of the composition.
Mixtures were visually examined to determine whether the polymer/lipid assemblies had solubilised the active agent in the aqueous medium. The clarity of a mixture was categorised as being clear if there was no significant visible opacity to the naked eye, whereas a mixture was categorised as cloudy if there was significant visible disruption to the passage of light.

[3] = Example 7: cosmetic gel preparation of Asc-P, clarity at pH 7; type: physicochemical; settings: Solution A (hydrolysed SMA3000P 2.5%, 90H 1.0%, S-LPC 0.01%, Asc-P 0.1%, Phenonip 0.1%) mixed 1:1 with xanthan gum/carbopol gel
Protocol: The emulsion was then homogenised for 10 minutes.
Preservative was then added to the solution and the pH adjusted.
Xanthan gum and carbopol were mixed with water and stirred until a uniform gel was formed. The pH was then adjusted to 7.
Solution A and Solution B were then mixed in equal volumes to produce the final preparation.

[4] = S LPC 0.01%, active agent 0.25%
[5] = S LPC 0.01%, active agent 0.15%
[6] = SL 30-3 0.05% (S LPC content 0.01%), active agent 0.80%

## CCC(=O)O[C@]1(C(=O)CCl)[C@@H](C)C[C@H]2[C@@H]3CCC4=CC(=O)C=C[C@]4(C)[C@@]3(F)[C@@H](O)C[C@@]21C [Clo. P, Clobetasol Propionate, reference compound]
[1]; S LPC 0.01%, active agent 0.1%
  Clarity: Clear
  pH on clearing: 8.85
  Turbidity at pH 7 (FNU): 50 FNU

## Erythromycin Sulphate [Erythro., reference compound]
[1]; S LPC 0.01%, active agent 0.1%
  Clarity: Clear
  pH on clearing: 8.86
  Turbidity at pH 7 (FNU): 18.20 FNU

## CCCC(=O)O[C@]1(C(=O)CCl)[C@H](C)C[C@@H]2[C@@H]3CCC4=CC(=O)C=C[C@]4(C)[C@]3(F)C(=O)C[C@@]21C [Clo. But]
[1]; S LPC 0.01%, active agent 0.1%
  Clarity: Clear
  pH on clearing: 8.94
  Turbidity at pH 7 (FNU): 63.0 FNU

## CC(=O)OCC(=O)[C@@]1(O)CC[C@H]2[C@@H]3CCC4=CC(=O)CC[C@]4(C)[C@H]3C(=O)C[C@@]21C [Cort. A., Cortisone Acetate, reference compound]
[1]; [4]
  Clarity: Clear
  pH on clearing: 8.87
  Turbidity at pH 7 (FNU): 14.28 FNU

## CC(C)[C@@H]1CC[C@@H](C)C[C@H]1OC(=O)C1CCC(=O)N1 (stereo partly drawn) [Questice]
[1]; [4]
  Clarity: Clear
  pH on clearing: 8.84
  Turbidity at pH 7 (FNU): 28.9 FNU

## CCCCCCCCCCCCCCCC(=O)OC/C=C(C)/C=C/C=C(C)/C=C/C1=C(C)CCCC1(C)C [Ret-P, Retinol palmitate]
[2]; active agent 0.25%
  Clarity: Clear
  Clarity at pH 7: Clear
  pH on clearing: 8.95

## Ceramide IIIA
[2]; active agent 0.1%
  Clarity: Clear
  Clarity at pH 7: Clear
  pH on clearing: 8.89

## CCCCCCCCCCCCCCCC(=O)OC[C@H](O)[C@H]1OC(=O)C(OC(=O)CCCCCCCCCCCCCCC)=C1O [CP]
[2]; active agent 0.1%
  Clarity: Clear
  Clarity at pH 7: Clear
  pH on clearing: 8.89

## CC12CCC(C(=Cc3ccccc3)C1=O)C2(C)C (stereo not drawn) [Unisol S-22, 3-Benzylidene camphor]
[1]; [5]
  Clarity: Clear
  pH on clearing: 8.94
  Turbidity at pH 7 (FNU): 9.46 FNU

## CCCCCCCCC(CCCCCC)C(=O)OC[C@H](OC(=O)C(CCCCCC)CCCCCCCC)[C@H]1OC(=O)C(OC(=O)C(CCCCCC)CCCCCCCC)=C1OC(=O)C(CCCCCC)CCCCCCCC (stereo partly drawn) [VC-IP]
[2]; active agent 0.1%
  Clarity: Clear
  Clarity at pH 7: Clear
  pH on clearing: 8.89

## CCCCCCCCCCCCCCCC(=O)OC[C@H](O)[C@H]1OC(=O)C(O)=C1O [Asc-P, L-ascorbyl palmitate]
[2]; active agent 0.1%
  Clarity at pH 7: Clear
  pH on clearing: 8.87
[3]
  Appearance of cosmetic preparation: clear and colourless aqueous gel

## CC(=O)N1CCN(c2ccc(OCC3COC(Cn4ccnc4)(c4ccc(Cl)cc4Cl)O3)cc2)CC1 (stereo not drawn) [Keta., Ketaconazole, reference compound]
[1]; S LPC 0.01%, active agent 0.1%
  Clarity: Clear
  pH on clearing: 8.63
  Turbidity at pH 7 (FNU): 40.75 FNU
[1]; S LPC 0.01%, active agent 0.4%
  Clarity: Clear
  pH on clearing: 8.83
  Turbidity at pH 7 (FNU): 74.5 FNU

## CC(=O)OCC(=O)[C@@]1(O)CC[C@H]2[C@@H]3CCC4=CC(=O)CC[C@]4(C)[C@H]3[C@@H](O)C[C@@]21C [HC A, Hydrocortisone Acetate, reference compound]
[1]; [4]
  Clarity: Clear
  pH on clearing: 8.92
  Turbidity at pH 7 (FNU): 39.6 FNU

## COc1ccc(C(=O)c2ccccc2)c(O)c1 [Eusolex 4360, Benzophenone-3]
[1]; S LPC 0.01%, active agent 0.1%
  Clarity: Clear
  pH on clearing: 8.96
  Turbidity at pH 7 (FNU): 31.00 FNU

## COc1ccc(C(=O)CC(=O)c2ccc(C(C)(C)C)cc2)cc1 [Avobenzene]
[1]; S LPC 0.01%, active agent 0.1%
  Clarity: Clear
  pH on clearing: 8.88
  Turbidity at pH 7 (FNU): 62.0 FNU

## C[C@@H]1[C@H](O)[C@@H](C)/C=C/C=C/CC/C=C/C=C/C=C/C=C/C(O[C@H]2O[C@H](C)[C@@H](O)[C@H](N)[C@@H]2O)CC2O[C@](O)(CC(O)C(O)CCC(O)CC(O)CC(O)CC(=O)O[C@H]1C)CC(O)C2C(=O)O (stereo partly drawn) [Nystatin, reference compound]
[1]; S LPC 0.01%, active agent 0.1%
  Clarity: Clear
  pH on clearing: 8.85
  Turbidity at pH 7 (FNU): 6.93 FNU

## CC1=C(/C=C/C(C)=C/C=C/C(C)=C/C=C/C=C(C)/C=C/C=C(C)/C=C/C2=C(C)CCCC2(C)C)C(C)(C)CCC1 [β-Car, β-carotene]
[2]; active agent 0.1%
  Clarity: Clear
  Clarity at pH 7: Clear
  pH on clearing: 8.83
[2]; active agent 0.25%
  Clarity: Clear
  Clarity at pH 7: Clear
  pH on clearing: 8.83

## NC[C@@H]1O[C@H](O[C@H]2[C@@H](O)[C@H](O[C@@H]3[C@@H](O)[C@H](N)C[C@H](N)[C@H]3O[C@H]3O[C@H](CN)[C@@H](O)[C@H](O)[C@H]3N)O[C@@H]2CO)[C@H](N)[C@@H](O)[C@@H]1O.O=S(=O)(O)O [Neo. Sulphate, Neomycin Sulphate, reference compound]
[1]; S LPC 0.01%, active agent 0.1%
  Clarity: Clear
  pH on clearing: 8.82
  Turbidity at pH 7 (FNU): 42.80 FNU

## CC(C)CCC[C@@H](C)[C@H]1CC[C@H]2C3=CC=C4C[C@@H](O)CC[C@]4(C)[C@H]3CC[C@]12C [7-DHC, 7-Dehydrocholesterol]
[1]; S LPC 0.01%, active agent 0.1%
  Clarity: Clear
  pH on clearing: 8.91
  Turbidity at pH 7 (FNU): 7.28 FNU

## C[C@]12CCC(=O)C=C1CC[C@@H]1[C@@H]2[C@@H](O)C[C@@]2(C)[C@H]1CC[C@]2(O)C(=O)CO [HC, Hydrocortisone, reference compound]
[1]; [4]
  Clarity: Clear
  pH on clearing: 8.97
  Turbidity at pH 7 (FNU): 9.09 FNU

## Ceramide IIIB [Cera. IIIB]
[1]; S LPC 0.01%, active agent 0.1%
  Clarity: Clear
  pH on clearing: 8.98
  Turbidity at pH 7 (FNU): 120.7 FNU

## Clc1ccccc1C(c1ccccc1)(c1ccccc1)n1ccnc1 [Clot., Clotrimazole, reference compound]
[1]; S LPC 0.01%, active agent 0.1%
  Clarity: Clear
  pH on clearing: 8.78
  Turbidity at pH 7 (FNU): 5.91 FNU

## Cc1cc(CC(C)CC(C)(C)C)n(O)c(=O)c1.NCCO (stereo not drawn) [Octopirox, Piroctone olamine]
[1]; [6]
  Clarity: Clear
  Turbidity at pH 7 (FNU): 3.52 FNU

## CC(=O)OCC(=O)[C@@]1(O)[C@H](C)C[C@H]2[C@@H]3CCC4=CC(=O)C=C[C@]4(C)[C@@]3(F)[C@@H](O)C[C@@]21C [DEX A.A., Dexamethasone Acetate Anhydrous, reference compound]
[1]; [4]
  Clarity: Clear
  pH on clearing: 8.84
  Turbidity at pH 7 (FNU): 10.52 FNU

## CC(Cc1ccc(O)c(O)c1)C(C)Cc1ccc(O)c(O)c1 (stereo not drawn) [NDGA, Nordihydroguaiaretic acid]
[1]; S LPC 0.01%, active agent 0.1%
  Clarity: Clear
  pH on clearing: 8.98
  Turbidity at pH 7 (FNU): 27.7 FNU

## CCCCC(CC)COC(=O)C=Cc1ccc(OC)cc1 (stereo not drawn) [Eusolex 2292, Octyl methoxycinimate]
[1]; S LPC 0.01%, active agent 0.1%
  Clarity: Clear
  pH on clearing: 8.81
  Turbidity at pH 7 (FNU): 24.50 FNU

## CC(C)CCC[C@@H](C)[C@H]1CC[C@H]2[C@@H]3CC=C4C[C@@H](OS(=O)(=O)O)CC[C@]4(C)[C@H]3CC[C@]12C [Chol Sulphate]
[1]; S LPC 0.01%, active agent 0.1%
  Clarity: Clear
  pH on clearing: 8.81
  Turbidity at pH 7 (FNU): 17.81 FNU

## C=C1CC[C@H](O)C/C1=C/C=C1\CCC[C@]2(C)[C@@H]([C@H](C)CCCC(C)C)CC[C@@H]12 [Vitamin D3, Cholecalciferol, reference compound]
[1]; [4]
  Clarity: Clear
  pH on clearing: 8.59
  Turbidity at pH 7 (FNU): 19.78 FNU

## CC(C)CCC[C@@H](C)[C@H]1CC[C@H]2[C@@H]3CC=C4C[C@@H](O)CC[C@]4(C)[C@H]3CC[C@]12C [Chol, Cholesterol]
[2]; active agent 0.1%
  Clarity: Clear
  Clarity at pH 7: Clear
  pH on clearing: 8.95

## CCCC(=O)O[C@]1(C(=O)CO)CC[C@H]2[C@@H]3CCC4=CC(=O)CC[C@]4(C)[C@H]3[C@@H](O)C[C@@]21C [HC But]
[1]; S LPC 0.01%, active agent 0.1%
  Clarity: Clear
  pH on clearing: 8.86
  Turbidity at pH 7 (FNU): 33.1 FNU

## CCCCCCCCCCCCCCCC(=O)N[C@@H](CCCCN)C(=O)N[C@H](C(=O)N[C@H](C(=O)N[C@@H](CCCCN)C(=O)N[C@@H](CO)C(=O)O)[C@@H](C)O)[C@@H](C)O [Mat, palmityl-KTTKS] (Palmitoyl-KTTKS-OH; C-terminus assumed)
[2]; active agent 0.5%
  Clarity: Clear
  Clarity at pH 7: Clear
  pH on clearing: 8.86

## acetyl hexapeptide 3 [Argir]
[2]; active agent 0.3%
  Clarity at pH 7: Clear

## Nc1ccc(C(=O)O)cc1 [PABA, 4-Aminobenzoic acid]
[1]; S LPC 0.01%, active agent 0.1%
  Clarity: Clear
  pH on clearing: 8.89
  Turbidity at pH 7 (FNU): 23.20 FNU

From patent publication US8623414B2, “Compositions comprising a lipid and copolymer of styrene and maleic acid” (Malvren Cosmeceutics Limited, priority 2005, dated 2014)
